PMC11187126, “Structure and dynamics of the pyroglutamylated RF-amide peptide QRFP receptor GPR103” (Nature Communications, 2024)
Where two headings read alike, the source gives them in different places. No end group written: not given here.

Molecular target: T1, GPR103 E203^ECL2A (Homo sapiens, UniProt Q96P65, E203A)
T1 construct: we used human full-length QRFPR-encoding plasmids; expressed in transfected cells; host or cells: HEK293 cells, pCAGGS vector
T1 sequence (Q96P65 1-431 E203A): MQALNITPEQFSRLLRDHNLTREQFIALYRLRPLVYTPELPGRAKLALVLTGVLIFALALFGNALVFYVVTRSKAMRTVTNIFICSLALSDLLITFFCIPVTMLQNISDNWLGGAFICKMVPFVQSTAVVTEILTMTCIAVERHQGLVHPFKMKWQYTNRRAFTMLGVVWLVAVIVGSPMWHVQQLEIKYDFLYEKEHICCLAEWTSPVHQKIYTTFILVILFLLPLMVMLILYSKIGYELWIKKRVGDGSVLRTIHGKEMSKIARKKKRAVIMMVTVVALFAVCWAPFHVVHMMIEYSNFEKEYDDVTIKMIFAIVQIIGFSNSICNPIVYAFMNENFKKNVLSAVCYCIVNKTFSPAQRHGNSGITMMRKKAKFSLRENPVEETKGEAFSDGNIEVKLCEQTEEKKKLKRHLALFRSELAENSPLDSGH
Test: TGFα shedding assay; Exp. level >WT (1:1)
Assay type: cell-based
Experimental: For the TGFα shedding assay and the flow cytometry analysis, we used human full-length QRFPR-encoding plasmids. Specifically, GPR103 was N-terminally modified with an HA signal sequence followed by a FLAG epitope and then a flexible linker ([…]; the FLAG epitope is underlined) and inserted into the pCAGGS vector. Plasmid encoding GPR103 mutants were generated using Quickchange Site-Directed Mutagensis kit (Agilent).
The TGFα shedding assay was performed as described previously with minor modifications. Plasmid transfection was performed in a 6-well plate with a mixture of 500 ng (per well in a 6-well plate) AP-TGFα-encoding plasmid and 200 ng GPR103-encoding plasmid. After 1-day culture, the transfected cells were harvested by trypsinization, pelleted by centrifugation at 190 × g for 5 min, and washed once with 5 mM HEPES (pH 7.4)-containing Hank’s Balanced Salt Solution (HBSS). After centrifugation, the cells were resuspended in 8 mL of the HEPES-containing HBSS. The cell suspension was seeded in a 96-well culture plate (cell plate) at a volume of 90 μL (per well hereafter) and incubated in a 37 °C incubator with 5% CO2 for 30 min. […] After spinning the cell plates at 190 × g for 2 min, 80 μL of conditioned media was transferred to an empty 96-well plate (conditioned media (CM) plate). Then, 80 μL of AP reaction solution (10 mM p-nitrophenylphosphate (p-NPP), 120 mM Tris-HCl (pH 9.5), 40 mM NaCl, and 10 mM MgCl2) was dispensed into the cell plates and the CM plates. Absorbance at 405 nm of the plates was measured using a microplate reader (SpectraMax 340 PC384, Molecular Devices) before and after 1-h incubation at room temperature. Ligand-induced AP-TGFα release was calculated by subtracting spontaneous AP-TGFα release signal from ligand-induced AP-TGFα release signal. The AP-TGFα release signals were fitted to a four-parameter sigmoidal concentration–response curve, using the Prism 10 software (GraphPad Prism). For each replicate experiment, the pEC50 parameter (negative logarithmic values of EC50 values) of the individual GPR103 mutants were normalized to that of the wild-type GPR103 performed in parallel, and resulting ∆pEC50 values were used to denote ligand response activity of the mutants. […]
Exp. le vel: WT (1:5 0)Exp. le vel: WT (1:5 0)Exp. le vel: WT (1:5 0)Exp. le vel: WT (1:2 0)Exp. le vel: WT (1:2 0)Exp. le vel: WT (1:1 0) […]
L1 4N - t e r mA F2 5N - t e r mA I 2 6N - t e r mA Y 2 9N - t e r mA C 9 82 .5 7A T10 22 .6 1A Exp . l eve l: WT (1 :5)Exp . l evel : >WT (1 :1)Exp. le vel: WT (1:2 0)Exp. le vel: WT (1:2 0)Exp. le vel: WT (1:5 0)Exp . l eve l: WT (1 :1) […]
Exp. le vel: WT (1:1 0)Exp. le vel: WT (1:2 0) C 1 1 83 .2 5AExp. le vel: WT (1:5 0)Exp. le vel: WT (1:5 0)Exp. le vel: WT (1:2 0)Exp . l eve l: WT (1 :5) […]
Exp. le vel: WT (1:5 0)Exp. le vel: WT (1:1 0)Exp. le vel: WT (1:5 0) E203ECL2AExp . l evel : >WT (1 :1)Exp. le vel: WT (1:5 0)Exp. le vel: WT (1:5 0) […]
Exp . l eve l: WT (1 :1) F28Exp. le vel: WT (1:5 0) C 2 8 56 .4 7AExp. le vel: WT (1:2 0) WExp. le vel: WT (1:2 0) F28Exp. le vel: WT (1:5 0)Exp . l evel : >WT (1 :1) […]
Exp. le vel: WT (1:5 0)Exp. le vel: WT (1:5 0) C 3 2 77 .4 8AExp . l eve l: WT (1 :5)Exp . l evel : >WT (1 :1)Exp . l evel : >WT (1 :1) […]
Suppl eme nt ary Figure 1 | Mutational analysis of GPR103. […]
mutants. Data are presented as mean values ± SEM, normally n=3-5; dots), each performed in triplicate. b-d Cell-surface expression (b) and QRFP26-in-duced activation of GPR103 (c, d) were analyzed by the flow cytometry and the TGFα shedding assay, respectively. From the concentration–response curves (a), Emax (c) and ΔpEC50 (d) values relative to the wild type were calculated. Colors in the mutant bars indicate an expression level matching to that of titrated wild type. Statistical analyses were performed using the ordinary one-way ANOVA followed by Dunnett tests with the expression-matched […]

Emax (Exp. #1): 96.63 % WT | Emax (Exp. #2): 100.59 % WT | Emax (Exp. #3): 99.12 % WT | Emax (mean, read-out: Emax): 98.8% | EC50 (n = 3): 288 nM | Emax (n = 3, read-out: Emax): 101 ± 0.94%
Substance: TSGPLGNLAEELNGYSRKKGGFSFRF-NH2 [QRFP26]
